From ChEMBL document CHEMBL1201862, “PubChem BioAssay data set” (2004)
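Cells were grown in 96-well plates and exposed to each compound for 48 hours at five concentrations; endpoints were interpolated linearly between bracketing concentrations, or set to the highest concentration if not reached. Here, GI50 denotes the concentration required for 50% inhibition of growth.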 Calls of active or inactive are those of the source. Cut-off read from the data, not from the text of the source: active = GI50 up to about 1.1 µM and inactive = higher.

Tests used:
Test in all cases: NCI-60 cell line screen, 48 h
HCT-116 = test system: HCT-116
DMS-273 = test system: DMS-273
M14 = test system: M14
SK-MEL-2 = test system: SK-MEL-2
KM-20L2 = test system: KM-20L2
HOP-62 = test system: HOP-62
KM12 = test system: KM12
OVCAR-3 = test system: OVCAR-3
LOX IMVI = test system: LOX IMVI
OVCAR-4 = test system: OVCAR-4
NCI-H23 = test system: NCI-H23
K562 = test system: K562
SR = test system: SR
COLO 205 = test system: COLO 205
RXF 393 = test system: RXF 393
HCC 2998 = test system: HCC 2998
EKVX = test system: EKVX
DLD-1 = test system: DLD-1
SN12C = test system: SN12C
HOP-92 = test system: HOP-92
SF-268 = test system: SF-268
SNB-19 = test system: SNB-19
NCI-H460 = test system: NCI-H460
RXF 631 = test system: RXF 631
DMS-114 = test system: DMS-114
UO-31 = test system: UO-31
HCT-15 = test system: HCT-15
SF-295 = test system: SF-295
SK-MEL-28 = test system: SK-MEL-28
IGROV-1 = test system: IGROV-1
UACC-257 = test system: UACC-257
ACHN = test system: ACHN
A549 = test system: A549
UACC-62 = test system: UACC-62
OVCAR-5 = test system: OVCAR-5
786-0 = test system: 786-0
CAKI-1 = test system: CAKI-1
SNB-75 = test system: SNB-75
SK-MEL-5 = test system: SK-MEL-5
SW-620 = test system: SW-620
CCRF-CEM = test system: CCRF-CEM
SF-539 = test system: SF-539
MOLT-4 = test system: MOLT-4
Malme-3M = test system: Malme-3M
HOP-18 = test system: HOP-18
OVCAR-8 = test system: OVCAR-8
LXFL 529 = test system: LXFL 529
TK-10 = test system: TK-10
A498 = test system: A498
U-251 = test system: U-251
M19-MEL = test system: M19-MEL
NCI-H522 = test system: NCI-H522
NCI-H226 = test system: NCI-H226
SK-OV-3 = test system: SK-OV-3
SNB-78 = test system: SNB-78
XF498 = test system: XF498
HT-29 = test system: HT-29
RPMI-8226 = test system: RPMI-8226
HL-60 = test system: HL-60

COc1ccc2nc3cc(Cl)ccc3c(Sc3ccc(N)cc3)c2c1
GI50 (HCT-116): 4.78 µM (inactive) | GI50 (DMS-273): 10.6 µM (inactive) | GI50 (M14): 9.06 µM (inactive) | GI50 (SK-MEL-2): 13.8 µM (inactive) | GI50 (KM-20L2): 4.59 µM (inactive) | GI50 (HOP-62): 24.2 µM (inactive) | GI50 (KM12): 6.76 µM (inactive) | GI50 (OVCAR-3): 9.57 µM (inactive) | GI50 (LOX IMVI): 7.6 µM (inactive) | GI50 (OVCAR-4): 15.5 µM (inactive) | GI50 (NCI-H23): 14.1 µM (inactive) | GI50 (K562): 3.42 µM (inactive) | GI50 (SR): 2.62 µM (inactive) | GI50 (COLO 205): 11.2 µM (inactive) | GI50 (RXF 393): 11.7 µM (inactive) | GI50 (HCC 2998): 12.2 µM (inactive) | GI50 (EKVX): 11.7 µM (inactive) | GI50 (DLD-1): 4.47 µM (inactive) | GI50 (SN12C): 11.6 µM (inactive) | GI50 (HOP-92): 24.4 µM (inactive) | GI50 (SF-268): 11.6 µM (inactive) | GI50 (SNB-19): 16.9 µM (inactive) | GI50 (NCI-H460): 7.98 µM (inactive) | GI50 (RXF 631): 11 µM (inactive) | GI50 (DMS-114): 4.99 µM (inactive) | GI50 (UO-31): 10.8 µM (inactive) | GI50 (HCT-15): 3.94 µM | GI50 (SF-295): 16.7 µM (inactive) | GI50 (SK-MEL-28): 14.9 µM (inactive) | GI50 (IGROV-1): 16.1 µM (inactive) | GI50 (UACC-257): 13.2 µM (inactive) | GI50 (ACHN): 10.1 µM (inactive) | GI50 (A549): 12.5 µM (inactive) | GI50 (UACC-62): 5.04 µM (inactive) | GI50 (OVCAR-5): 19.8 µM (inactive) | GI50 (786-0): 6.95 µM (inactive) | GI50 (CAKI-1): 12.9 µM (inactive) | GI50 (SNB-75): 11 µM (inactive) | GI50 (SK-MEL-5): 12.4 µM (inactive) | GI50 (SW-620): 3.77 µM (inactive) | GI50 (CCRF-CEM): 3.81 µM (inactive) | GI50 (SF-539): 13.9 µM (inactive) | GI50 (MOLT-4): 2.56 µM (inactive) | GI50 (Malme-3M): 15 µM (inactive) | GI50 (HOP-18): 12.2 µM (inactive) | GI50 (OVCAR-8): 11 µM (inactive) | GI50 (LXFL 529): 4.32 µM (inactive) | GI50 (TK-10): 13.2 µM (inactive) | GI50 (A498): 29.1 µM (inactive) | GI50 (U-251): 10.5 µM (inactive) | GI50 (M19-MEL): 7.62 µM (inactive) | GI50 (NCI-H522): 4.83 µM (inactive) | GI50 (NCI-H226): 18.5 µM (inactive) | GI50 (SK-OV-3): 4.37 µM (inactive) | GI50 (SNB-78): 12.5 µM (inactive) | GI50 (XF498): 14.2 µM (inactive)

CCCCCCCCCCCCCCCCP(=O)(OC)OC
GI50 (HCT-116): 18.9 µM (inactive) | GI50 (DMS-273): 14.5 µM (inactive) | GI50 (M14): 16.3 µM (inactive) | GI50 (SK-MEL-2): 16.4 µM (inactive) | GI50 (KM-20L2): 22.4 µM (inactive) | GI50 (HOP-62): 12 µM (inactive) | GI50 (KM12): 17.9 µM (inactive) | GI50 (HT-29): 17.5 µM (inactive) | GI50 (OVCAR-3): 17.8 µM (inactive) | GI50 (LOX IMVI): 16.9 µM (inactive) | GI50 (OVCAR-4): 20.7 µM (inactive) | GI50 (NCI-H23): 16.5 µM (inactive) | GI50 (K562): 22.5 µM (inactive) | GI50 (SR): 19.1 µM (inactive) | GI50 (COLO 205): 17 µM (inactive) | GI50 (RXF 393): 19 µM (inactive) | GI50 (HCC 2998): 15.4 µM (inactive) | GI50 (EKVX): 15 µM (inactive) | GI50 (DLD-1): 17.5 µM (inactive) | GI50 (SN12C): 17.2 µM (inactive) | GI50 (HOP-92): 16.4 µM (inactive) | GI50 (SNB-19): 15.2 µM (inactive) | GI50 (NCI-H460): 17.3 µM (inactive) | GI50 (RXF 631): 16.9 µM (inactive) | GI50 (DMS-114): 16.1 µM (inactive) | GI50 (UO-31): 11.7 µM (inactive) | GI50 (HCT-15): 16.6 µM | GI50 (SF-295): 18 µM (inactive) | GI50 (SK-MEL-28): 17.7 µM (inactive) | GI50 (IGROV-1): 16.7 µM (inactive) | GI50 (UACC-257): 17.5 µM (inactive) | GI50 (ACHN): 14.8 µM (inactive) | GI50 (A549): 17.7 µM (inactive) | GI50 (UACC-62): 14.6 µM (inactive) | GI50 (RPMI-8226): 13.2 µM (inactive) | GI50 (OVCAR-5): 13.9 µM (inactive) | GI50 (786-0): 17.6 µM (inactive) | GI50 (CAKI-1): 16.6 µM (inactive) | GI50 (SNB-75): 16.6 µM (inactive) | GI50 (SK-MEL-5): 16.4 µM (inactive) | GI50 (SW-620): 14.7 µM (inactive) | GI50 (CCRF-CEM): 22.3 µM (inactive) | GI50 (SF-539): 20.6 µM (inactive) | GI50 (HL-60): 11.6 µM (inactive) | GI50 (MOLT-4): 16.5 µM (inactive) | GI50 (Malme-3M): 18.2 µM (inactive) | GI50 (HOP-18): 15 µM (inactive) | GI50 (OVCAR-8): 15.8 µM (inactive) | GI50 (LXFL 529): 15.8 µM (inactive) | GI50 (TK-10): 17.1 µM (inactive) | GI50 (U-251): 17.9 µM (inactive) | GI50 (M19-MEL): 16.4 µM (inactive) | GI50 (NCI-H522): 13.5 µM (inactive) | GI50 (NCI-H226): 17.1 µM (inactive) | GI50 (SK-OV-3): 15.2 µM (inactive) | GI50 (SNB-78): 17.7 µM (inactive) | GI50 (XF498): 13.1 µM (inactive)

COC(=O)C1=C(c2cc(OC)c(OC)c(OC)c2)O[C@H](c2ccc3c(c2)OCO3)[C@H]1COC(C)=O
GI50 (DMS-273): 26.6 µM (inactive) | GI50 (M14): 15.3 µM (inactive) | GI50 (SK-MEL-2): 27.2 µM (inactive) | GI50 (KM-20L2): 30.3 µM (inactive) | GI50 (HOP-62): 21.5 µM (inactive) | GI50 (KM12): 20.2 µM (inactive) | GI50 (HT-29): 18.6 µM (inactive) | GI50 (OVCAR-3): 30.5 µM (inactive) | GI50 (LOX IMVI): 32.1 µM (inactive) | GI50 (OVCAR-4): 29 µM (inactive) | GI50 (NCI-H23): 19.1 µM (inactive) | GI50 (K562): 21.3 µM (inactive) | GI50 (SR): 7.35 µM (inactive) | GI50 (COLO 205): 10.7 µM (inactive) | GI50 (HCC 2998): 18.3 µM (inactive) | GI50 (EKVX): 41.6 µM (inactive) | GI50 (DLD-1): 26.3 µM (inactive) | GI50 (SN12C): 24.7 µM (inactive) | GI50 (HOP-92): 7.24 µM (inactive) | GI50 (NCI-H460): 30.5 µM (inactive) | GI50 (RXF 631): 42.3 µM (inactive) | GI50 (UO-31): 20.9 µM (inactive) | GI50 (HCT-15): 22.1 µM | GI50 (SF-295): 6.85 µM (inactive) | GI50 (IGROV-1): 22.2 µM (inactive) | GI50 (UACC-257): 40.7 µM (inactive) | GI50 (ACHN): 26.4 µM (inactive) | GI50 (RPMI-8226): 24.2 µM (inactive) | GI50 (OVCAR-5): 48.6 µM (inactive) | GI50 (786-0): 29.4 µM (inactive) | GI50 (CAKI-1): 19.8 µM (inactive) | GI50 (SNB-75): 27.3 µM (inactive) | GI50 (SK-MEL-5): 9.35 µM (inactive) | GI50 (SW-620): 25.2 µM (inactive) | GI50 (CCRF-CEM): 40.2 µM (inactive) | GI50 (SF-539): 26.3 µM (inactive) | GI50 (HL-60): 15.6 µM (inactive) | GI50 (MOLT-4): 18.7 µM (inactive) | GI50 (Malme-3M): 34.4 µM (inactive) | GI50 (HOP-18): 26.7 µM (inactive) | GI50 (OVCAR-8): 39.3 µM (inactive) | GI50 (LXFL 529): 20.3 µM (inactive) | GI50 (TK-10): 39.2 µM (inactive) | GI50 (A498): 21.4 µM (inactive) | GI50 (U-251): 24.1 µM (inactive) | GI50 (M19-MEL): 20.7 µM (inactive) | GI50 (NCI-H226): 33 µM (inactive) | GI50 (SK-OV-3): 23.1 µM (inactive) | GI50 (SNB-78): 26.7 µM (inactive) | GI50 (XF498): 33.6 µM (inactive)
